Reference: patent US9237747B2, “Herbicidal compositions comprising 4-amino-3-chloro-5-fluoro-6-(4-chloro-2-fluoro-3-methoxyphenyl) pyridine-2-carboxylic acid or a derivative thereof and insecticides” (priority 2013, dated 2016)

What was measured:
[1] = system: LEFCH; assay: In-water applied weed control, transplanted paddy rice (greenhouse); assay type: in vivo, Leptochloa chinensis
Method: Weed seeds or nutlets of the desired test plant species were planted in puddled soil (mud) prepared by mixing a shredded, non-sterilized mineral soil (50.5 percent silt, 25.5 percent clay, and 24 percent sand, with a pH of about 7.6 and an organic matter content of about 2.9 percent) and water at a 1:1 volumetric ratio. The prepared mud was dispensed in 365 mL aliquots into 16-ounce (oz.) non-perforated plastic pots with a surface area of 86.59 square centimeters (cm^2) leaving a headspace of 3 centimeters (cm) in each pot. Rice seeds were planted in Sun Gro MetroMix® 306 planting mixture, which typically has a pH of 6.0 to 6.8 and an organic matter content of about 30 percent, in plastic plug trays. Seedlings at the second or third leaf stage of growth were transplanted into 860 mL of mud contained in 32-oz. non-perforated plastic pots with a surface area of 86.59 cm^2 4 days prior to herbicide application. The paddy was created by filling the headspace of the pots with 2.5 to 3 cm of water. When required to ensure good germination and healthy plants, a fungicide treatment and/or other chemical or physical treatment was applied. The plants were grown for 4-22 days in a greenhouse with an approximate 14 h photoperiod which was maintained at about 29° C. during the day and about 26° C. during the night. Nutrients were added as Osmocote® (17:6:10, N:P:K+minor nutrients) at 2 grams (g) per 16-oz. pot and 4 g per 32-oz. pot. Water was added on a regular basis to maintain the paddy flood, and supplemental lighting was provided with overhead metal halide 1000-Watt lamps as necessary. The plants were employed for testing when they reached the first through fourth true leaf stage. […]
(§1) Treatment requirements for each compound or herbicidal component were calculated based upon the rates being tested, the concentration of active ingredient or acid equivalent in the formulation, an application volume of 2 mL per component per pot, and an application area of 86.59 cm^2 per pot.
For formulated compounds, a measured amount was placed in an individual 100 or 200 mL glass vial and was dissolved in a volume of 1.25% (v/v) AgriDex® crop oil concentrate to obtain application solutions. […]
The treated plants and control plants were placed in a greenhouse as described above and water was added as needed to maintain a paddy flood. After approximately 3 weeks the condition of the test plants as compared with that of the untreated plants was determined visually and scored on a scale of 0 to 100 percent where 0 corresponds to no injury or growth inhibition and 100 corresponds to complete kill. […]

[2] = system: CYPRO; assay: as above; assay type: in vivo, Cyperus rotundus
Method: Weed seeds or nutlets of the desired test plant species were planted in puddled soil (mud) prepared by mixing a shredded, non-sterilized mineral soil (50.5 percent silt, 25.5 percent clay, and 24 percent sand, with a pH of about 7.6 and an organic matter content of about 2.9 percent) and water at a 1:1 volumetric ratio. The prepared mud was dispensed in 365 mL aliquots into 16-ounce (oz.) non-perforated plastic pots with a surface area of 86.59 square centimeters (cm^2) leaving a headspace of 3 centimeters (cm) in each pot. Rice seeds were planted in Sun Gro MetroMix® 306 planting mixture, which typically has a pH of 6.0 to 6.8 and an organic matter content of about 30 percent, in plastic plug trays. Seedlings at the second or third leaf stage of growth were transplanted into 860 mL of mud contained in 32-oz. non-perforated plastic pots with a surface area of 86.59 cm^2 4 days prior to herbicide application. The paddy was created by filling the headspace of the pots with 2.5 to 3 cm of water. When required to ensure good germination and healthy plants, a fungicide treatment and/or other chemical or physical treatment was applied. The plants were grown for 4-22 days in a greenhouse with an approximate 14 h photoperiod which was maintained at about 29° C. during the day and about 26° C. during the night. Nutrients were added as Osmocote® (17:6:10, N:P:K+minor nutrients) at 2 grams (g) per 16-oz. pot and 4 g per 32-oz. pot. Water was added on a regular basis to maintain the paddy flood, and supplemental lighting was provided with overhead metal halide 1000-Watt lamps as necessary. The plants were employed for testing when they reached the first through fourth true leaf stage.
Treatments consisted of the acid or esters of 4-amino-3-chloro-5-fluoro-6-(4-chloro-2-fluoro-3-methoxy-phenyl)pyridine-2-carboxylic acid (compound A) each formulated as an SC (suspension concentrate) and various herbicidal components alone and in combination. Forms of compound A were applied on an acid equivalent basis.
Other […] components were applied on an active ingredient basis and consisted of etofenprox (technical grade material) and sulfoxaflor formulated as Sulfoxaflor WG.
as §1
For formulated compounds, a measured amount was placed in an individual 100 or 200 mL glass vial and was dissolved in a volume of 1.25% (v/v) AgriDex® crop oil concentrate to obtain application solutions.
For technical grade compounds, a weighed amount was placed in an individual 100 to 200 mL glass vial and was dissolved in a volume of acetone to obtain concentrated stock solutions.
Applications were made by injecting with a pipetter appropriate amounts of the application solutions, individually and sequentially, into the aqueous layer of the paddy. Control plants were treated in the same manner with the solvent blank. Applications were made so that all treated plant material received the same concentrations of acetone and crop oil concentrate.
The treated plants and control plants were placed in a greenhouse as described above and water was added as needed to maintain a paddy flood. After approximately 3 weeks the condition of the test plants as compared with that of the untreated plants was determined visually and scored on a scale of 0 to 100 percent where 0 corresponds to no injury or growth inhibition and 100 corresponds to complete kill.
Colby's equation was used to determine the herbicidal effects expected from the mixtures (Colby, S. R. Calculation of the synergistic and antagonistic response of herbicide combinations. Weeds 1967, 15, 20-22.). […]

Structure (SMILES)	Visual Weed Control (%) - 19 DAA LEFCH Obs ([1]; 8 g ae/ha alone) [%]	Visual Weed Control (%) - 19 DAA LEFCH Obs ([1]; 16 g ae/ha alone) [%]	Visual Weed Control (%) - 19 DAA LEFCH Obs ([1]; 32 g ae/ha alone) [%]	Visual Weed Control (%) - 19 DAA CYPRO Obs ([2]; 8 g ae/ha alone) [%]	Visual Weed Control (%) - 19 DAA CYPRO Obs ([2]; 16 g ae/ha alone) [%]	Visual Weed Control (%) - 19 DAA CYPRO Obs ([2]; 32 g ae/ha alone) [%]	Visual Weed Control (%) - 21 DAA CYPRO Obs ([2]; 21 DAA, 8 g ae/ha alone) [%]	Visual Weed Control (%) - 19 DAA LEFCH Obs ([1]; 150 g ai/ha alone) [%]	Visual Weed Control (%) - 19 DAA CYPRO Obs ([2]; 37.5 g ai/ha alone) [%]	Visual Weed Control (%) - 19 DAA CYPRO Obs ([2]; 75 g ai/ha alone) [%]	Visual Weed Control (%) - 19 DAA CYPRO Obs ([2]; 150 g ai/ha alone) [%]
COc1c(Cl)ccc(-c2nc(C(=O)OCc3ccccc3)c(Cl)c(N)c2F)c1F [Compound A Benzyl Ester]	3	8	10	20	88	87	40	–	–	–	–
CC(c1ccc(C(F)(F)F)nc1)S(C)(=O)=NC#N (centres unmarked) [Sulfoxaflor, N-[methyloxido[1-[6-(trifluoromethyl)-3-pyridinyl]ethyl]-λ^4-sulfanylidene]cyanamide]	–	–	–	–	–	–	–	0	0	0	0
